{
  "source": "patent US6743413B1",
  "about": "“Suspension aerosol formulations” (3M Company, priority 1991, dated 2004)",
  "type_in_all_cases": "physicochemical",
  "key": {"[1]": {"test": "Visual observation of suspension aerosol formulations (dispersion, flocculation, settling, creaming, suitability for metered dose inhaler)", "settings": "Example 3: 1:1 (W/W) HFC 134a/HFC 227 versus corresponding formulations in HFC 134a alone", "experimental": "(§1) For each of the micronized drug substances A-G set forth below, formulations were prepared at drug concentrations of 0.017 percent, 0.039 percent, 0.083 percent, 0.41 percent, and 1.6 percent by weight based on the total weight of the formulation (corresponding to 0.20 mg/mL, 0.50 mg/mL, 1.0 mg/mL, 5.0 mg/Ml, and 20 mg/mL, respectively). The formulations were prepared by dispersing micronized drug in HFC 134a in a sealed 15 mL clear PET vial using ultrasonic energy.\nFor each propellant mix the range of drug concentrations used in Example 1 was used.\nBDP formulations were prepared at 0.070 percent by weight (1.0 mg/mL) in HFC 227 and at 0.38 percent by weight (5.0 mg/mL) in a 1:1 mixture of HFC 227 and HFC 134a.\nFormulations of salmeterol free base at 0.02 percent by weight and 0.05 percent by weight were prepared in HFC 134a and in HFC 227 by placing the drug and 5 mL of glass beads into a 15 mL glass vial, crimping on a continuous valve, and adding the appropriate amount of propellant. The formulations were shaken on a paint shaker for 10 min in order to disperse the drug.\nThe vial was then shaken on a paint shaker, chilled, and the contents transferred to 10 mL vials fitted with the metered dose valve. […] Valve delivery was measured through the life of the formulations."}, "[2]": {"test": "Visual assessment of suspension formulations by time lapse photography 10 and 30 seconds after agitation", "set-up": "key: + = visually acceptable formulation; − = visually unacceptable formulation; ? = border line acceptable formulation", "experimental": "as §1\nUsing time lapse photography 10 and 30 seconds after agitation the formulations were assessed as follows: […]\nThe formulations were photographed using time lapse photography at 10 and 30 seconds post agitation and were assessed as follows: […]"}, "[3]": {"test": "Visual assessment of suspension formulations by time lapse photography 10 and 30 seconds after agitation", "set-up": "key: + = visually acceptable formulation; − = visually unacceptable formulation; ? = border line acceptable formulation", "settings": "10 and 30 seconds post agitation"}, "[4]": {"test": "Suspension aerosol particle size analysis (Malvern Mastersizer, laser diffraction)", "settings": "Example 7: 0.02 percent by weight in HFC 134a", "experimental": "The particle size distribution of drug in the aerosol suspension is assayed by Malvern Mastersizer™ Particle Size Analyser using a suspending medium of 0.01 percent sorbitan trioleate in heptane.\nUsing a primed connector, shots are fired via an injection adapter into the Malvern sample cell containing the suspending medium. When a suitable level of obscuration (in the range 8.5-9) is achieved, analysis by laser diffraction is then performed.\nThe results below show the percentage by weight of particles having particle size below 10.7 μm, below 5.07 μm, and below 1.95 μm. The “Initial” entries represent the average of three independent determinations, and the “25° C.”, “CYC”, and “HHC” entries represent a single determination after one month under the indicated storage conditions."}, "[5]": {"test": "Twin stage impinger deposition of emitted dose", "settings": "Example 7: 0.02 percent by weight in HFC 134a", "excerpt": "Glass impinger apparatus A (BP198 Appendix XV11C) is used. To determine the deposition of the emitted dose, the apparatus is assembled as described. The oral adapter is attached to the throatpiece of the apparatus, and a suitable pump is connected to the outlet of the apparatus. The air flow through the apparatus is 60 ±5 liters per minute measured at the inlet of the throat. […] Ten shots are then fired via the adapter into the apparatus from the canister.\nThe apparatus is then dismantled and each stage washed with the appropriate amount of methanol. The washings are assayed by HPLC to give the content of the drug found at each stage and also the material balance."}, "[6]": {"settings": "1 Month CYC (cycled between 15° C. and 37° C.)"}, "[7]": {"settings": "1 Month HHC (approximately 40° C. and 85 percent relative humidity)"}, "[8]": {"settings": "Initial (average of three determinations)"}},
  "note": "Values joined by “and” are separate entries in the source; they are usually repeats but may differ in a detail not shown here. Equal entries are not always repeated.",
  "data": [
    {"molecule": "COc1ccc(C[C@@H](C)NC[C@H](O)c2ccc(O)c(NC=O)c2)cc1.COc1ccc(C[C@@H](C)NC[C@H](O)c2ccc(O)c(NC=O)c2)cc1.O=C(O)/C=C/C(=O)O", "note": "[Formoterol fumarate]", "values": [
      {"measurement": "flocculation and sedimentation rate", "setting": "[1]", "result": "reduced flocculation and a slower sedimentation rate"},
      {"measurement": "visual assessment of formulation", "setting": "[2]; Example 1: drug concentration 0.017 % in HFC 134a alone", "result": "+"},
      {"measurement": "visual assessment of formulation", "setting": "[2]; Example 1: drug concentration 0.039 % in HFC 134a alone", "result": "?"},
      {"measurement": "visual assessment of formulation", "setting": "[2]; Example 1: drug concentration 0.083 % in HFC 134a alone", "result": "?"},
      {"measurement": "visual assessment of formulation", "setting": "[2]; Example 1: drug concentration 0.41 % in HFC 134a alone", "result": "−"},
      {"measurement": "visual assessment of formulation", "setting": "[2]; Example 1: drug concentration 1.63 % in HFC 134a alone", "result": "+"},
      {"measurement": "Assessment (visual)", "setting": "[3]; Example 3: drug concentration 0.015 % in 1:1 HFC 134a/HFC 227", "result": "+"},
      {"measurement": "Assessment (visual)", "setting": "[3]; Example 3: drug concentration 0.038 % in 1:1 HFC 134a/HFC 227", "result": "+"},
      {"measurement": "Assessment (visual)", "setting": "[3]; Example 3: drug concentration 0.076 % in 1:1 HFC 134a/HFC 227", "result": "?"},
      {"measurement": "Assessment (visual)", "setting": "[3]; Example 3: drug concentration 0.38 % in 1:1 HFC 134a/HFC 227", "result": "?"},
      {"measurement": "Assessment (visual)", "setting": "[3]; Example 3: drug concentration 1.5 % in 1:1 HFC 134a/HFC 227", "result": "+"},
      {"measurement": "particles with particle size <1.95 μm", "setting": "[4]; [6]", "result": "36.1 Percent by weight and 32.5 Percent by weight"},
      {"measurement": "particles with particle size <5.07 μm", "setting": "[4]; [6]", "result": "92.9 Percent by weight and 92.5 Percent by weight"},
      {"measurement": "particles with particle size <10.7 μm", "setting": "[4]; [6]", "result": 99.8, "unit": "Percent by weight"},
      {"measurement": "particles with particle size <1.95 μm", "setting": "[4]; [7]", "result": "33.5 Percent by weight and 34.9 Percent by weight"},
      {"measurement": "particles with particle size <5.07 μm", "setting": "[4]; [7]", "result": "93.1 Percent by weight and 92.4 Percent by weight"},
      {"measurement": "particles with particle size <10.7 μm", "setting": "[4]; [7]", "result": "99.8 Percent by weight and 99.7 Percent by weight"},
      {"measurement": "particles with particle size <1.95 μm", "setting": "[4]; 1 Month stored at 25° C.", "result": "36.3 Percent by weight and 31.7 Percent by weight"},
      {"measurement": "particles with particle size <5.07 μm", "setting": "[4]; 1 Month stored at 25° C.", "result": "93.6 Percent by weight and 94.8 Percent by weight"},
      {"measurement": "particles with particle size <10.7 μm", "setting": "[4]; 1 Month stored at 25° C.", "result": "99.8 Percent by weight and 99.9 Percent by weight"},
      {"measurement": "particles with particle size <1.95 μm", "setting": "[4]; [8]", "result": "32.2 Percent by weight and 30.5 Percent by weight"},
      {"measurement": "particles with particle size <5.07 μm", "setting": "[4]; [8]", "result": "93.4 Percent by weight and 92.6 Percent by weight"},
      {"measurement": "particles with particle size <10.7 μm", "setting": "[4]; [8]", "result": "99.6 Percent by weight and 98.0 Percent by weight"},
      {"measurement": "% Stem/Adapter", "setting": "[5]; 1 Month (25° C.)", "result": "52.0% and 52.5%"},
      {"measurement": "%Stage 1", "setting": "[5]; 1 Month (25° C.)", "result": "16.7% and 23.9%"},
      {"measurement": "%Stage 2", "setting": "[5]; 1 Month (25° C.)", "result": "31.3% and 23.6%"},
      {"measurement": "% Stem/Adapter", "setting": "[5]; 1 Month (CYC)", "result": "16.8% and 24.6%"},
      {"measurement": "%Stage 1", "setting": "[5]; 1 Month (CYC)", "result": "53.6% and 47.6%"},
      {"measurement": "%Stage 2", "setting": "[5]; 1 Month (CYC)", "result": "29.7% and 27.8%"},
      {"measurement": "%Stage 1", "setting": "[5]; 1 Month (HHC)", "result": "37.0% and 60.4%"},
      {"measurement": "%Stage 2", "setting": "[5]; 1 Month (HHC)", "result": "29.0% and 24.3%"},
      {"measurement": "% Stem/Adapter", "setting": "[5]; Initial", "result": "26.0% and 24.7% and 28.5%"},
      {"measurement": "%Stage 1", "setting": "[5]; Initial", "result": "37.5% and 35.3% and 36.7%"},
      {"measurement": "%Stage 2", "setting": "[5]; Initial", "result": "36.5% and 40.0% and 34.8%"}
    ]}
  ]
}
